The source of these data is ChEMBL document CHEMBL1144949, “4-Phenyl-4H-pyrans as IK(Ca) channel blockers” (Bioorg Med Chem Lett, 2003).

The structures appear in SMILES notation.

For one assay, the system named is C6-BU-1. Put plainly: IKCa channel inhibition was determined at 72% residual Rb+ efflux of pre loaded rat C6BU1 glioma cell in comparison with Nifedipine. In kind it is functional, cell-based.
`CCCOC(=O)C1=C(C)OC(C)=C(C(=O)OCCC)C1c1ccc(Cl)cc1`: the IC50 is 1000 nM.

The next assay concerns C6-BU-1. Put plainly: IKCa channel inhibition was determined measuring ionomycin-induced Rb+ efflux of pre loaded rat C6BU1 glioma cell in comparison with Nifedipine. The format is functional, cell-based.
With `COC(=O)C1=C(C)OC(C)=C(C(=O)OC)C1c1ccccc1Cl`, the IC50 was determined as 100 nM.

For the molecule `COC(=O)C1=C(C)OC(C)=C(C(=O)OC)C1c1ccccc1`, half-maximal inhibition (IC50) required 160 nM.

Molecule `CCOC(=O)C1=C(C)OC(C)=C(C(=O)OC)C1c1ccc(Cl)cc1` (racemic) registered an IC50 of 35 nM.

As to `COC(=O)C1=C(C)OC(C)=C(C(=O)OC)C1c1cccc(Cl)c1`, inhibition was half-maximal at 26 nM (IC50).

For `COC(=O)C1=C(C)OC(C)=C(C(=O)OC)C1c1ccc(Cl)cc1`, the midpoint of inhibition, the IC50, lay at 24 nM.

The molecule `COC(=O)C1=C(C)NC(C)=C(C(=O)OC)C1c1ccccc1[N+](=O)[O-]` [NIFEDIPINE] showed an IC50 of 1000 nM.

The molecule `COC(=O)C1=C(C)OC(C)=C(C(=O)OC)C1c1ccc(Cl)c(C(F)(F)F)c1` came in with a concentration for half-maximal inhibition (IC50) of 24 nM.

In the case of `CCOC(=O)C1=C(C)OC(C)=C(C(=O)OCC)C1c1ccc(Cl)cc1`, the IC50 turned out to be 150 nM.

`CC(=O)C1=C(C)OC(C)=C(C(C)=O)C1c1ccc(Cl)cc1` yielded an IC50 of 220 nM.

`COC(=O)C1=C(C)OC(C)=C(C(C)=O)C1c1ccc(Cl)c(C(F)(F)F)c1` (racemic) showed a concentration for half-maximal inhibition (IC50) of 8 nM.

`COC(=O)C1=C(C)OC(C)=C(C(C)=O)C1c1ccc(Cl)cc1` (racemic) came in with an IC50 of 75 nM.

A further assay relates to C6-BU-1. Put plainly: IKCa channel inhibition was determined measuring ionomycin-induced Rb+ efflux of pre loaded rat C6BU1 glioma cell in comparison with Nifedipine; NA=Inactive at 1000 nM. The format is functional, cell-based.
As to `CCCCOC(=O)C1=C(C)OC(C)=C(C(=O)OCCCC)C1c1ccc(Cl)cc1`, the IC50 entry is given as “Not Active”.
